Measurements as given in ChEMBL document CHEMBL1201862, “PubChem BioAssay data set” (2004).
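Results reflect a 48-hour exposure of cells in 96-well plates to compound at five concentrations. GI50 is the concentration that inhibits growth by half.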 The source made the active and inactive calls. Cut-off read from the data, not from the text of the source: active = GI50 up to about 1.1 µM and inactive = higher.

Assays:
Assay in all cases: DTP human tumour cell line panel, 48 h
NCI-H460 = tested on: NCI-H460
OVCAR-5 = tested on: OVCAR-5
UO-31 = tested on: UO-31
A498 = tested on: A498
OVCAR-4 = tested on: OVCAR-4
KM-20L2 = tested on: KM-20L2
SF-539 = tested on: SF-539
CCRF-CEM = tested on: CCRF-CEM
UACC-257 = tested on: UACC-257
DLD-1 = tested on: DLD-1
SNB-75 = tested on: SNB-75
SN12C = tested on: SN12C
SF-268 = tested on: SF-268
U-251 = tested on: U-251
NCI-H23 = tested on: NCI-H23
786-0 = tested on: 786-0
HT-29 = tested on: HT-29
SK-MEL-5 = tested on: SK-MEL-5
HCC 2998 = tested on: HCC 2998
TK-10 = tested on: TK-10
NCI-H522 = tested on: NCI-H522
CAKI-1 = tested on: CAKI-1
HL-60 = tested on: HL-60
LXFL 529 = tested on: LXFL 529
SR = tested on: SR
HOP-62 = tested on: HOP-62
SW-620 = tested on: SW-620
HOP-18 = tested on: HOP-18
OVCAR-8 = tested on: OVCAR-8
A549 = tested on: A549
M19-MEL = tested on: M19-MEL
SNB-78 = tested on: SNB-78
SK-MEL-2 = tested on: SK-MEL-2
IGROV-1 = tested on: IGROV-1
K562 = tested on: K562
SK-OV-3 = tested on: SK-OV-3
UACC-62 = tested on: UACC-62
COLO 205 = tested on: COLO 205
NCI-H226 = tested on: NCI-H226
HCT-116 = tested on: HCT-116
KM12 = tested on: KM12
MOLT-4 = tested on: MOLT-4
DMS-114 = tested on: DMS-114
DMS-273 = tested on: DMS-273
LOX IMVI = tested on: LOX IMVI
HCT-15 = tested on: HCT-15
Malme-3M = tested on: Malme-3M
SNB-19 = tested on: SNB-19
SF-295 = tested on: SF-295
EKVX = tested on: EKVX
ACHN = tested on: ACHN
SK-MEL-28 = tested on: SK-MEL-28
OVCAR-3 = tested on: OVCAR-3
M14 = tested on: M14
RPMI-8226 = tested on: RPMI-8226

**Q.** Which results are given for `O=c1ccc2ccccc2c2ccccc12`?
**A.** GI50 (NCI-H460): 3.98 µM (inactive); GI50 (OVCAR-5): 2.82 µM (inactive); GI50 (UO-31): 3.81 µM (inactive); GI50 (A498): 22.7 µM (inactive); GI50 (OVCAR-4): 8.07 µM (inactive); GI50 (KM-20L2): 1.94 µM (inactive); GI50 (SF-539): 1.97 µM (inactive); GI50 (CCRF-CEM): 3.2 µM (inactive); GI50 (UACC-257): 4.82 µM (inactive); GI50 (DLD-1): 3.39 µM (inactive); GI50 (SNB-75): 2.94 µM (inactive); GI50 (SN12C): 2.46 µM (inactive); GI50 (SF-268): 2.79 µM (inactive); GI50 (U-251): 2.34 µM (inactive); GI50 (NCI-H23): 2.83 µM (inactive); GI50 (786-0): 2.77 µM (inactive); GI50 (HT-29): 2.93 µM (inactive); GI50 (SK-MEL-5): 2.9 µM (inactive); GI50 (HCC 2998): 9.64 µM (inactive); GI50 (TK-10): 14.5 µM (inactive); GI50 (NCI-H522): 4.37 µM (inactive); GI50 (CAKI-1): 2.81 µM (inactive); GI50 (HL-60): 2.96 µM (inactive); GI50 (LXFL 529): 2.95 µM (inactive); GI50 (SR): 1.52 µM (inactive); GI50 (HOP-62): 3.24 µM (inactive); GI50 (SW-620): 3.3 µM (inactive); GI50 (HOP-18): 3.52 µM (inactive); GI50 (OVCAR-8): 2.34 µM (inactive); GI50 (A549): 13.8 µM (inactive); GI50 (M19-MEL): 3.15 µM (inactive); GI50 (SNB-78): 4.07 µM (inactive); GI50 (SK-MEL-2): 3.43 µM (inactive); GI50 (IGROV-1): 6.12 µM (inactive); GI50 (K562): 3.7 µM (inactive); GI50 (SK-OV-3): 3.6 µM (inactive); GI50 (UACC-62): 2.27 µM (inactive); GI50 (COLO 205): 4.6 µM (inactive); GI50 (NCI-H226): 4.27 µM (inactive); GI50 (HCT-116): 3.7 µM (inactive); GI50 (KM12): 2.58 µM (inactive); GI50 (MOLT-4): 3.78 µM (inactive); GI50 (DMS-114): 2.41 µM (inactive); GI50 (DMS-273): 3.33 µM (inactive); GI50 (LOX IMVI): 1.91 µM (inactive); GI50 (HCT-15): 1.87 µM; GI50 (Malme-3M): 10.4 µM (inactive); GI50 (SNB-19): 2.82 µM (inactive); GI50 (SF-295): 3.61 µM (inactive); GI50 (EKVX): 17.3 µM (inactive); GI50 (ACHN): 3.97 µM (inactive); GI50 (SK-MEL-28): 5.46 µM (inactive); GI50 (OVCAR-3): 3.4 µM (inactive); GI50 (M14): 2.42 µM (inactive); GI50 (RPMI-8226): 2.23 µM (inactive)
